# PubChem BioAssay (NCI)
# Values joined by “and” are separate entries in the source; they are usually repeats but may differ in a detail not shown here. Equal values may be shown once.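 Here, GI50 denotes the concentration required for 50% inhibition of growth. The concentration for full growth arrest is given as TGI.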
# Legend:
# Experiment in all cases: NCI tumour cell line growth inhibition, 384-well format
# 786-0 renal = test system: 786-0 renal
# A498 renal = test system: A498 renal
# A549 NSCLC = test system: A549 NSCLC
# ACHN renal = test system: ACHN renal
# BT-549 breast = test system: BT-549 breast
# CAKI-1 renal = test system: CAKI-1 renal
# CCRF-CEM leukemia = test system: CCRF-CEM leukemia
# COLO 205 colon = test system: COLO 205 colon
# DU-145 prostate = test system: DU-145 prostate
# EKVX NSCLC = test system: EKVX NSCLC
# HCC-2998 colon = test system: HCC-2998 colon
# HCT-116 colon = test system: HCT-116 colon
# HCT-15 colon = test system: HCT-15 colon
# HL-60(TB) leukemia = test system: HL-60(TB) leukemia
# HOP-62 NSCLC = test system: HOP-62 NSCLC
# HOP-92 NSCLC = test system: HOP-92 NSCLC
# HS 578T breast = test system: HS 578T breast
# HT29 colon = test system: HT29 colon
# IGROV1 ovarian = test system: IGROV1 ovarian
# K-562 leukemia = test system: K-562 leukemia
# KM12 colon = test system: KM12 colon
# LOX IMVI melanoma = test system: LOX IMVI melanoma
# M14 melanoma = test system: M14 melanoma
# MALME-3M melanoma = test system: MALME-3M melanoma
# MCF7 breast = test system: MCF7 breast
# MDA-MB-231 breast = test system: MDA-MB-231 breast
# MDA-MB-435 melanoma = test system: MDA-MB-435 melanoma
# MDA-MB-468 breast = test system: MDA-MB-468 breast
# MOLT-4 leukemia = test system: MOLT-4 leukemia
# NCI-H226 lung = test system: NCI-H226 lung
# NCI-H23 lung = test system: NCI-H23 lung
# NCI-H322M lung = test system: NCI-H322M lung
# NCI-H460 NSCLC = test system: NCI-H460 NSCLC
# NCI-H522 lung = test system: NCI-H522 lung
# NCI/ADR-RES ovarian = test system: NCI/ADR-RES ovarian
# OVCAR-3 ovarian = test system: OVCAR-3 ovarian
# OVCAR-4 ovarian = test system: OVCAR-4 ovarian
# OVCAR-5 ovarian = test system: OVCAR-5 ovarian
# OVCAR-8 ovarian = test system: OVCAR-8 ovarian
# PC-3 prostate = test system: PC-3 prostate
# RPMI-8226 leukemia = test system: RPMI-8226 leukemia
# RXF 393 renal = test system: RXF 393 renal
# SF-268 CNS = test system: SF-268 CNS
# SF-295 CNS = test system: SF-295 CNS
# SF-539 CNS = test system: SF-539 CNS
# SK-MEL-28 melanoma = test system: SK-MEL-28 melanoma
# SK-MEL-5 melanoma = test system: SK-MEL-5 melanoma
# SK-OV-3 ovarian = test system: SK-OV-3 ovarian
# SN12C renal = test system: SN12C renal
# SNB-19 CNS = test system: SNB-19 CNS
# SNB-75 CNS = test system: SNB-75 CNS
# SR leukemia = test system: SR leukemia
# SW-620 colon = test system: SW-620 colon
# T-47D breast = test system: T-47D breast
# TK-10 renal = test system: TK-10 renal
# U251 glioblastoma = test system: U251 glioblastoma
# UACC-257 melanoma = test system: UACC-257 melanoma
# UACC-62 melanoma = test system: UACC-62 melanoma
# UO-31 renal = test system: UO-31 renal
smiles,measurement,setting,value
Cn1cc(-c2nc(N[C@@H]3CCCC[C@@H]3N)c(F)c3c2C(=O)NC3)cn1,GI50,786-0 renal,5.53 µM and 4.81 µM
same,TGI,786-0 renal,17.9 µM and 18.3 µM
same,GI50,A498 renal,0.559 µM and 1.3 µM
same,TGI,A498 renal,10.4 µM and 8.94 µM
same,GI50,A549 NSCLC,4.08 µM and 6.73 µM
same,TGI,A549 NSCLC,33.2 µM and 32.9 µM
same,GI50,ACHN renal,2 µM and 6.59 µM
same,TGI,ACHN renal,59.2 µM and > 100 µM
same,GI50,BT-549 breast,2.17 µM and 5.01 µM
same,TGI,BT-549 breast,5.18 µM and 15.9 µM
same,GI50,CAKI-1 renal,3.22 µM and 4.17 µM
same,TGI,CAKI-1 renal,19.7 µM and 19.3 µM
same,GI50,CCRF-CEM leukemia,1.48 µM and 1.75 µM
same,TGI,CCRF-CEM leukemia,2.97 µM and 3.26 µM
same,GI50,COLO 205 colon,1.45 µM and 1.85 µM
same,TGI,COLO 205 colon,2.9 µM and 3.53 µM
same,GI50,DU-145 prostate,4.08 µM and 9.76 µM
same,TGI,DU-145 prostate,30.8 µM and 38.1 µM
same,GI50,EKVX NSCLC,5.37 µM and 12.8 µM
same,TGI,EKVX NSCLC,29.5 µM and 62.4 µM
same,TGI,HCC-2998 colon,20.6 µM and 38.7 µM
same,GI50,HCT-116 colon,2.04 µM and 2.98 µM
same,TGI,HCT-116 colon,17.3 µM and 17.9 µM
same,GI50,HCT-15 colon,5.33 µM and 10.6 µM
same,TGI,HCT-15 colon,28.3 µM and > 100 µM
same,GI50,HL-60(TB) leukemia,3.18 µM and 2.76 µM
same,TGI,HL-60(TB) leukemia,14.7 µM and 13.3 µM
same,GI50,HOP-62 NSCLC,2.31 µM and 4.56 µM
same,TGI,HOP-62 NSCLC,9.99 µM and 16.5 µM
same,GI50,HOP-92 NSCLC,3.89 µM and 5.41 µM
same,TGI,HOP-92 NSCLC,15.6 µM and 18.3 µM
same,GI50,HS 578T breast,2.21 µM and 11 µM
same,TGI,HS 578T breast,12.1 µM and 25.5 µM
same,GI50,HT29 colon,4.79 µM and 7.58 µM
same,TGI,HT29 colon,58.5 µM and 26.6 µM
same,GI50,IGROV1 ovarian,2.99 µM and 10.9 µM
same,TGI,IGROV1 ovarian,28.9 µM and 90.9 µM
same,GI50,K-562 leukemia,2.93 µM and 3.44 µM
same,TGI,K-562 leukemia,14 µM and 18.6 µM
same,GI50,KM12 colon,0.339 µM and 0.445 µM
same,TGI,KM12 colon,25.2 µM and 45.1 µM
same,GI50,LOX IMVI melanoma,1.85 µM and 3.58 µM
same,TGI,LOX IMVI melanoma,3.98 µM and 12.7 µM
same,GI50,M14 melanoma,0.615 µM and 1.56 µM
same,TGI,M14 melanoma,25.7 µM and 14.5 µM
same,GI50,MALME-3M melanoma,6.89 µM and 4.15 µM
same,TGI,MALME-3M melanoma,22.2 µM and 26 µM
same,GI50,MCF7 breast,2.89 µM and 19.2 µM
same,TGI,MCF7 breast,36.5 µM and 81.2 µM
same,GI50,MDA-MB-231 breast,5 µM and 10.4 µM
same,TGI,MDA-MB-231 breast,17.7 µM and 22.9 µM
same,GI50,MDA-MB-435 melanoma,4.49 µM and 6.35 µM
same,TGI,MDA-MB-435 melanoma,> 100 µM
same,GI50,MDA-MB-468 breast,3.08 µM and 4.3 µM
same,TGI,MDA-MB-468 breast,6.44 µM and 11.7 µM
same,GI50,MOLT-4 leukemia,0.299 µM and 1.14 µM
same,GI50,NCI-H226 lung,2.08 µM and 4.38 µM
same,TGI,NCI-H226 lung,7.05 µM and 27.9 µM
same,GI50,NCI-H23 lung,2.17 µM and 4.29 µM
same,TGI,NCI-H23 lung,13 µM and 17.5 µM
same,GI50,NCI-H322M lung,15.5 µM and 28.7 µM
same,TGI,NCI-H322M lung,38.9 µM and > 100 µM
same,GI50,NCI-H460 NSCLC,2.61 µM and 3.15 µM
same,TGI,NCI-H460 NSCLC,13.5 µM and 14.3 µM
same,GI50,NCI-H522 lung,1.64 µM and 3.56 µM
same,TGI,NCI-H522 lung,6.01 µM and 15.4 µM
same,GI50,NCI/ADR-RES ovarian,38.8 µM and > 100 µM
same,TGI,NCI/ADR-RES ovarian,> 100 µM
same,GI50,OVCAR-3 ovarian,9.28 µM and 9.39 µM
same,TGI,OVCAR-3 ovarian,24.7 µM and 34.3 µM
same,GI50,OVCAR-4 ovarian,15.2 µM and 21.4 µM
same,TGI,OVCAR-4 ovarian,30.5 µM and 43.7 µM
same,GI50,OVCAR-5 ovarian,6.09 µM
same,TGI,OVCAR-5 ovarian,21.6 µM
same,GI50,OVCAR-8 ovarian,6.08 µM and 12.2 µM
same,TGI,OVCAR-8 ovarian,19.4 µM and 25.2 µM
same,GI50,PC-3 prostate,9.39 µM and 15.4 µM
same,TGI,PC-3 prostate,45.3 µM and 86.9 µM
same,GI50,RPMI-8226 leukemia,0.537 µM and 1.52 µM
same,TGI,RPMI-8226 leukemia,2.19 µM and 4.13 µM
same,GI50,RXF 393 renal,0.596 µM and 2.12 µM
same,TGI,RXF 393 renal,3.57 µM and 13 µM
same,GI50,SF-268 CNS,2.79 µM and 9.19 µM
same,TGI,SF-268 CNS,15.2 µM and 45.5 µM
same,GI50,SF-295 CNS,0.675 µM and 3.12 µM
same,TGI,SF-295 CNS,2.81 µM and 11.7 µM
same,GI50,SF-539 CNS,1.35 µM and 3.09 µM
same,TGI,SF-539 CNS,3.56 µM and 13 µM
same,GI50,SK-MEL-28 melanoma,10.2 µM and 11.2 µM
same,TGI,SK-MEL-28 melanoma,66.1 µM and > 100 µM
same,TGI,SK-MEL-5 melanoma,17.8 µM and 34.5 µM
same,GI50,SK-OV-3 ovarian,2.07 µM and 10.8 µM
same,TGI,SK-OV-3 ovarian,21.5 µM and 65.8 µM
same,GI50,SN12C renal,2.09 µM and 1.95 µM
same,TGI,SN12C renal,10.9 µM and 7.66 µM
same,GI50,SNB-19 CNS,17.8 µM and 19.4 µM
same,TGI,SNB-19 CNS,33.7 µM and 39.1 µM
same,GI50,SNB-75 CNS,1.88 µM and 5.16 µM
same,TGI,SNB-75 CNS,4.98 µM and 19.4 µM
same,GI50,SR leukemia,0.535 µM and 0.17 µM
same,TGI,SR leukemia,1.78 µM and 0.447 µM
same,GI50,SW-620 colon,2.37 µM and 5.69 µM
same,TGI,SW-620 colon,7.78 µM and 25.8 µM
same,GI50,T-47D breast,32.5 µM and 56.3 µM
same,TGI,T-47D breast,85.3 µM and > 100 µM
same,GI50,TK-10 renal,3.87 µM and 12.1 µM
same,TGI,TK-10 renal,17.5 µM and 26.9 µM
same,GI50,U251 glioblastoma,14.2 µM and 17.6 µM
same,TGI,U251 glioblastoma,27.9 µM and 32.8 µM
same,GI50,UACC-257 melanoma,12.8 µM and 33.7 µM
same,TGI,UACC-257 melanoma,33.4 µM and > 100 µM
same,GI50,UACC-62 melanoma,13.3 µM
same,TGI,UACC-62 melanoma,39.5 µM
same,GI50,UO-31 renal,7.89 µM and 11 µM
same,TGI,UO-31 renal,20.5 µM and 23.2 µM
